Results: ChEMBL document CHEMBL5365443, “Synthesis and biological evaluation of simplified ajudazol derivatives reveal potent 5-lipoxygenase inhibition and considerable apoptotic activity in neuroblastoma cells” (Bioorg Med Chem Lett, 2023)
The source made the active and inactive calls. The rule behind the calls is not given here.

Legend:
[1] = molecular target: T1, Polyunsaturated fatty acid 5-lipoxygenase (Homo sapiens, UniProt P09917); test: Inhibition of 5-LO in human neutrophils; format: cell-based, Neutrophil
T1 sequence (P09917 whole entry): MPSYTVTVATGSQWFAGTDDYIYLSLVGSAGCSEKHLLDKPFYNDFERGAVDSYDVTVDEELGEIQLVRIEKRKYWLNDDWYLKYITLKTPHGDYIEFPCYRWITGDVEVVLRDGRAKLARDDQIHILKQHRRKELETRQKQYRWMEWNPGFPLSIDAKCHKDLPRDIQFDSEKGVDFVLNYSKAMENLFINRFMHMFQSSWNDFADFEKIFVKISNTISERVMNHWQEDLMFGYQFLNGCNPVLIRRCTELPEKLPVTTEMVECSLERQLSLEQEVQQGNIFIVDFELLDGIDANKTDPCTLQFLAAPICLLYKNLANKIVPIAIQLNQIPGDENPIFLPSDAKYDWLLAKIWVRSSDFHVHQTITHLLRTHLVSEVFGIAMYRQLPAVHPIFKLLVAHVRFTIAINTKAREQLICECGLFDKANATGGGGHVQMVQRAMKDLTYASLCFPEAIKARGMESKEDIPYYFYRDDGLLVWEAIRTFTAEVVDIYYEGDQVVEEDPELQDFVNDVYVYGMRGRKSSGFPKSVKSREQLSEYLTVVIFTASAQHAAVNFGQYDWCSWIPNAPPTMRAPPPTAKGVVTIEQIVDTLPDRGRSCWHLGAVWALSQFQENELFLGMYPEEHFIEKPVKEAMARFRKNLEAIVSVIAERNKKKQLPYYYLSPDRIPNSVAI

1321N1 = test: Antiproliferative activity against human 1321N1 cells assessed as inhibition of cell growth by MTT assay; format: functional, cell-based
[2] = molecular target: T1, Polyunsaturated fatty acid 5-lipoxygenase; test: Inhibition of 5-LO (unknown origin)
Prostaglandin E synthase = molecular target: T2, Prostaglandin E synthase (Homo sapiens, UniProt O14684); test: Inhibition of mPGES-1 (unknown origin)
T2 sequence (O14684 whole entry): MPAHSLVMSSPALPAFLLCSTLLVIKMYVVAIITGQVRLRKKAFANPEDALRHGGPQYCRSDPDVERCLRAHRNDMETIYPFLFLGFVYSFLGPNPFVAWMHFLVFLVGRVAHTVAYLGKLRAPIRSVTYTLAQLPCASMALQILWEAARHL

[3] = Drug degradation in methanol assessed as half life; format: ADME
SH-SY5Y = test: Antiproliferative activity against human SH-SY5Y cells assessed as reduction in cell growth at 10 to 1000 nM; format: functional, cell-based; settings: dose 10-1000 nM
B104 [4] = test: Antiproliferative activity against rat B104 cells assessed as reduction in cell growth by MTT assay; format: functional, cell-based
B104 [5] = test: Induction of apoptosis in rat B104 cells assessed as DNA fragmentation at 10 uM by DNA laddering assay; format: functional, cell-based
B104 [6] = test: Induction of apoptosis in rat B104 cells assessed as DNA fragmentation at 100 uM by DNA laddering assay; format: functional, cell-based
B104 [7] = test: Antiproliferative activity against rat B104 cells assessed as reduction in cell growth at 10 to 1000 nM; format: functional, cell-based; settings: dose 10-1000 nM
B104 [8] = test: Effect on NADH:UQ oxidoreductase expression in rat B104 cells; format: functional, cell-based
B104 [9] = test: Upregulation of LDH mRNA expression in rat B104 cells; format: functional, cell-based
B104 [10] = test: Upregulation of […] mRNA expression in rat B104 cells; format: functional, cell-based
B104 [11] = test: Upregulation of ICDH mRNA expression in rat B104 cells; format: functional, cell-based
B104 [12] = test: Upregulation of NADH mRNA expression in rat B104 cells; format: functional, cell-based
B104 [13] = test: Upregulation of LDH level in rat B104 cells at 10 nM; format: functional, cell-based
B104 [14] = test: Upregulation of OGDH level in rat B104 cells at 10 nM; format: functional, cell-based
B104 [15] = test: Upregulation of ICDH level in rat B104 cells at 10 nM; format: functional, cell-based

Structure (SMILES)	IC50 [1] [µM]	IC50 (1321N1) [µM]	IC50 [2] [µM]	IC50 (Prostaglandin E synthase) [µM]	half-life [3] [h]	Activity (SH-SY5Y)	Activity (B104 [4])	Activity (B104 [5])	Activity (B104 [6])	Activity (B104 [7])	Activity (B104 [8])	Activity (B104 [9])	Activity (B104 [10])	Activity (B104 [11])	Activity (B104 [12])	Activity (B104 [13])	Activity (B104 [14])	Activity (B104 [15])
C=C(C/C=C\C=C/CC/C=C/CN(C)C(=O)/C=C(\C)OC)c1ncco1	> 30	4.3	24.5	> 30														
C=C(C/C=C\C=C/CC/C=C/CN(C)C(=O)/C=C(\C)OC)c1nc(C[C@@H](C)[C@H]2OC(=O)c3c(ccc(C)c3O)[C@@H]2O)co1	2.5	9.4	1.1	3.2	~168	Active	Active	Active	inactive	Active								
C=C(I)CCO[Si](CC)(CC)CC											Active	inactive	Active	Active	Active			
C=C(C/C=C\C=C/CC/C=C/CN(C)C(=O)/C=C(\C)OC)c1nc(C[C@H](C)[C@@H]2CC[C@@H](C)C[C@H]2O)co1	5.2	3.3	1	18.6		Active	Active	Active	inactive	Active						inactive	Active	Active
CO/C(C)=C/C(=O)N(C)C/C=C/CC/C=C\C=C/C[C@@H](C)c1nc(C[C@@H](C)[C@H]2OC(=O)c3c(ccc(C)c3O)[C@@H]2O)co1	1.6		6.9															
